Experimental data taken from US20240124466A1, “COMPOUNDS AND USE THEREOF FOR TREATMENT OF NEURODEGENERATIVE, DEGENERATIVE AND METABOLIC DISORDERS” (VOVA IDA THERAPEUTICS, INC., priority 2020, published 2024).

Test system: PK1 neuroblastoma cells exposed to TPrP
Experiment: cells
Conditions: Neuroblastoma cell, 96 h, read-out: TPrP EC50

Which EC50 does the source give for O=S(=O)(c1cc(-c2nnc(-c3ccccc3)[nH]2)ccn1)N1CCOCC1 [SR-28004, 4-((4-(5-Phenyl-4H-1,2,4-triazol-3-yl)pyridin-2-yl)sulfonyl)morpholine] here?
The EC50 was greater than 1200 nM.

How did the EC50 turn out when O=S(=O)(c1cc(-c2nnc(-c3ccccc3)[nH]2)ccc1Cl)N1CCOCC1 [SR-26525, 4-((2-Chloro-5-(5-phenyl-4H-1,2,4-triazol-3-yl)phenyl)sulfonyl)morpholine] was run?
The EC50 was 100 nM.

With Cc1ccc(-c2nnc(-c3ccccc3)[nH]2)cc1S(=O)(=O)NCc1cncnc1 [SR-33344, 2-Methyl-5-(5-phenyl-4H-1,2,4-triazol-3-yl)-N-(pyrimidin-5-ylmethyl)benzene sulfonamide] as the molecule, how does the EC50 read?
The EC50 was 650 nM.

With Cc1ccc(-c2nnc(-c3ccccc3)[nH]2)cc1S(=O)(=O)N1CCC(O)C1 (stereo not drawn) [SR-32284, 1-((2-Methyl-5-(5-phenyl-4H-1,2,4-triazol-3-yl)phenyl)sulfonyl)pyrrolidin-3-ol] as the molecule, how does the EC50 read?
Its EC50 is 550 nM.

With CC(=O)NCCNc1cc(-c2ccc(C)c(S(=O)(=O)N3CCOCC3)c2)ccn1 [SR-25104, N-(2-((4-(4-methyl-3-(morpholinosulfonyl)phenyl)pyridin-2-yl)amino)ethyl) acetamide] as the molecule, how does the EC50 read?
The EC50 was 100 nM.

Cc1ccc(-c2cnn(CCN3CCOCC3)c2)cc1S(=O)(=O)N1CCOCC1 [SR-24581] was tested. Which EC50 did it give?
The EC50 was 100 nM.

With COCCN1CCN(S(=O)(=O)c2cc(-c3nnc(-c4ccccc4)[nH]3)ccc2C)CC1 [SR-34533, 1-(2-Methoxyethyl)-4-((2-methyl-5-(5-phenyl-4H-1,2,4-triazol-3-yl)phenyl)sulfonyl)piperazine] as the molecule, how does the EC50 read?
Its EC50 is greater than 1500 nM.

Cc1ccc(-c2nnc(-c3ccc(F)c(F)c3)[nH]2)cc1S(=O)(=O)N1CCOCC1 [SR-27984, 4-((5-(5-(3,4-Difluorophenyl)-4H-1,2,4-triazol-3-yl)-2-methylphenyl)sulfonyl) morpholine] was tested. Which EC50 did it give?
The EC50 was 20 nM.

For Cc1c(F)cc(-c2nnc(-c3ccccc3)[nH]2)cc1S(=O)(=O)N1CCN(CCO)CC1 [SR-33604, 2-(4-((3-Fluoro-2-methyl-5-(5-phenyl-4H-1,2,4-triazol-3-yl)phenyl)sulfonyl)piperazin-1-yl)ethan-1-ol], which EC50 is on record?
The EC50 was 90 nM.

With Cc1ccc(-c2ccnc(N3CCOCC3)c2)cc1S(=O)(=O)N1CCOCC1 [SR-29224, 4-(4-(4-Methyl-3-(morpholinosulfonyl)phenyl)pyridin-2-yl)morpholine] as the molecule, how does the EC50 read?
The EC50 was 6 nM.

For Cc1ccc(-c2ccnc(-c3ccccc3)c2)cc1S(=O)(=O)N1CCOCC1 [SR-28984, 4-((2-Methyl-5-(2-phenylpyridin-4-yl)phenyl)sulfonyl)morpholine], which EC50 is on record?
Its EC50 is 30 nM.

How did the EC50 turn out when CC(=O)N(C)CCN(C)c1cc(-c2ccc(C)c(S(=O)(=O)N3CCOCC3)c2)ccn1 [SR-25124, N-methyl-N-(2-(methyl(4-(4-methyl-3-(morpholinosulfonyl)phenyl)pyridin-2-yl)amino)ethyl)acetamide] was run?
The EC50 was 240 nM.

Cc1ccc(-c2nnc(-c3ccc(F)cc3)[nH]2)cc1S(=O)(=O)N1CCOCC1 [SR-27964, 4-((5-(5-(4-Fluorophenyl)-4H-1,2,4-triazol-3-yl)-2-methylphenyl)sulfonyl) morpholine] was tested. Which EC50 did it give?
The EC50 was 40 nM.

Cc1ccc(-c2nnc(-c3ccccc3)[nH]2)cc1S(=O)(=O)N1CCC2(CC1)OCCCO2 [SR-32744, 9-((2-Methyl-5-(5-phenyl-4H-1,2,4-triazol-3-yl)phenyl)sulfonyl)-1,5-dioxa-9-azaspiro[5.5]undecane] was tested. Which EC50 did it give?
The EC50 was greater than 1500 nM.

With CC(=O)NC1CCN(CCn2cc(-c3ccc(C)c(S(=O)(=O)N4CCOCC4)c3)cn2)CC1 [SR-25864, N-(1-(2-(4-(4-methyl-3-(morpholinosulfonyl)phenyl)-1H-pyrazol-1-yl)ethyl)piperidin-4-yl)acetamide] as the molecule, how does the EC50 read?
The EC50 was 120 nM.

Cc1ccc(-c2cnn(-c3ccccc3)c2)cc1S(=O)(=O)N1CCOCC1 [SR-28925, 4-((2-Methyl-5-(1-phenyl-1H-pyrazol-4-yl)phenyl)sulfonyl)morpholine] was tested. Which EC50 did it give?
The EC50 was 20 nM.

Cc1ccc(-c2nnc(-c3ccccc3)[nH]2)cc1S(=O)(=O)N1CCC(O)CC1 [SR-32045, 1-((2-Methyl-5-(5-phenyl-4H-1,2,4-triazol-3-yl)phenyl)sulfonyl)piperidin-4-ol] was tested. Which EC50 did it give?
The EC50 was greater than 1500 nM.

With O=S(=O)(c1cc(-c2nnc(-c3ccccc3)[nH]2)ccc1C(F)(F)F)N1CCOCC1 [SR-28125, 4-((5-(5-Phenyl-4H-1,2,4-triazol-3-yl)-2-(trifluoromethyl)phenyl)sulfonyl) morpholine] as the molecule, how does the EC50 read?
The EC50 was 30 nM.

Which EC50 does the source give for Cc1ccc(-c2n[nH]c(-c3ccccc3)n2)cc1S(=O)(=O)N1CCOCC1 [SR-25604-2] here?
Its EC50 is 40 nM.

How did the EC50 turn out when C[C@@H]1CN(S(=O)(=O)c2cc(-c3nnc(-c4ccccc4)[nH]3)ccc2C(F)(F)F)C[C@H](C)O1 [SR-30786, (cis)-2,6-dimethyl-4-((5-(5-phenyl-4H-1,2,4-triazol-3-yl)-2-(trifluoromethyl)phenyl)sulfonyl)morpholine] was run?
Its EC50 is greater than 1200 nM.

For CC(=O)N1CCN(CCn2cc(-c3ccc(C)c(S(=O)(=O)N4CCOCC4)c3)cn2)CC1 [SR-25484, 1-(4-(2-(4-(4-Methyl-3-(morpholinosulfonyl)phenyl)-1H-pyrazol-1-yl)ethyl)piperazin-1-yl)ethan-1-one], which EC50 is on record?
The EC50 was 140 nM.

With Cc1ccc(-c2nnc(-c3ccccc3)[nH]2)cc1S(=O)(=O)N1CCC(CCO)CC1 [SR-33725, 2-(1-((2-Methyl-5-(5-phenyl-4H-1,2,4-triazol-3-yl)phenyl)sulfonyl)piperidin-4-yl)ethan-1-ol] as the molecule, how does the EC50 read?
Its EC50 is greater than 1500 nM.

How did the EC50 turn out when C=CCN1C[C@H](C)N(S(=O)(=O)c2cc(-c3ccnc(Cl)c3)ccc2C)C[C@H]1C (relative stereo) [SR-35465, (trans)-1-allyl-4-((5-(2-chloropyridin-4-yl)-2-methylphenyl)sulfonyl)-2,5-dimethylpiperazine] was run?
Its EC50 is greater than 1500 nM.

Cc1ccc(-c2cnn(Cc3ccccc3)c2)cc1S(=O)(=O)N1CCOCC1 [SR-28764, 4-((5-(1-Benzyl-1H-pyrazol-4-yl)-2-methylphenyl)sulfonyl)morpholine] was tested. Which EC50 did it give?
Its EC50 is 150 nM.

With O=S(=O)(c1ccc(-c2nnc(-c3ccccc3)[nH]2)cc1Cl)N1CCOCC1 [SR-26324, 4-((2-Chloro-4-(5-phenyl-4H-1,2,4-triazol-3-yl)phenyl)sulfonyl)morpholine] as the molecule, how does the EC50 read?
The EC50 was greater than 320 nM.

With Cc1ccc(-c2ccnc(Cl)c2)cc1S(=O)(=O)N1CCN(CC(F)(F)F)CC1 [SR-35324, 1-((5-(2-Chloropyridin-4-yl)-2-methylphenyl)sulfonyl)-4-(2,2,2-trifluoroethyl) piperazine] as the molecule, how does the EC50 read?
Its EC50 is greater than 1500 nM.

How did the EC50 turn out when Cc1ccc(-c2nnc(-c3ccccc3)[nH]2)cc1S(=O)(=O)NC1CCC2(CC1)OCCO2 [SR-32764, 2-Methyl-5-(5-phenyl-4H-1,2,4-triazol-3-yl)-N-(1,4-dioxaspiro[4.5]decan-8-yl)benzenesulfonamide] was run?
Its EC50 is greater than 1500 nM.

Cc1ccc(-c2ccnc(Cl)c2)cc1S(=O)(=O)N1CCN(CC(C)O)CC1 (stereo not drawn) [SR-35464, 1-(4-((5-(2-Chloropyridin-4-yl)-2-methylphenyl)sulfonyl)piperazin-1-yl)propan-2-ol] was tested. Which EC50 did it give?
The EC50 was 800 nM.

Which EC50 does the source give for Cc1ccc(-c2cn(-c3ccccc3)nn2)cc1S(=O)(=O)N1CCOCC1 [SR-30084, 4-((2-Methyl-5-(1-phenyl-1H-1,2,3-triazol-4-yl)phenyl)sulfonyl)morpholine] here?
Its EC50 is 30 nM.

For Cc1ccc(-c2csc(-c3ccccc3)c2)cc1S(=O)(=O)N1CCOCC1 [SR-29184, 4-((2-Methyl-5-(5-phenylthiophen-3-yl)phenyl)sulfonyl)morpholine], which EC50 is on record?
Its EC50 is greater than 1200 nM.

How did the EC50 turn out when Cc1ccc(-c2nnc(-c3ccccc3)[nH]2)cc1S(=O)(=O)N1CCC2(CC1)OCc1ccccc12 [SR-32984, 1′-((2-Methyl-5-(5-phenyl-4H-1,2,4-triazol-3-yl)phenyl)sulfonyl)-3H-spiro[isobenzofuran-1,4′-piperidine]] was run?
Its EC50 is greater than 1500 nM.

How did the EC50 turn out when C#CCCC(=O)CCn1cc(-c2ccc(C)c(S(=O)(=O)N3CCN(CCc4ccncc4)CC3)c2)cn1 [SR-35186, 1-(4-(4-Methyl-3-((4-(2-(pyridin-4-yl)ethyl)piperazin-1-yl)sulfonyl)phenyl)-1H-pyrazol-1-yl)hept-6-yn-3-one] was run?
Its EC50 is less than 5 nM.

Cc1ccc(-c2nnc(-c3ccccc3)[nH]2)cc1S(=O)(=O)N1CCC(O)(Cc2ccccc2)CC1 [SR-33024, 4-Benzyl-1-((2-methyl-5-(5-phenyl-4H-1,2,4-triazol-3-yl)phenyl)sulfonyl) piperidin-4-ol] was tested. Which EC50 did it give?
Its EC50 is greater than 1500 nM.

Cc1ccc(-c2nnc(-c3ccccc3)[nH]2)cc1S(=O)(=O)NC(C)(C)CO [SR-32184, N-(1-hydroxy-2-methylpropan-2-yl)-2-methyl-5-(5-phenyl-4H-1,2,4-triazol-3-yl)benzenesulfonamide] was tested. Which EC50 did it give?
The EC50 was 180 nM.

How did the EC50 turn out when Cc1ccc(-c2nnc(-c3ccccc3)[nH]2)cc1S(=O)(=O)NCc1ccccn1 [SR-32144, 2-Methyl-5-(5-phenyl-4H-1,2,4-triazol-3-yl)-N-(pyridin-2-ylmethyl)benzene sulfonamide] was run?
The EC50 was greater than 1500 nM.

Cc1ccc(-c2nnc(C3CCCCC3)[nH]2)cc1S(=O)(=O)N1CCOCC1 [SR-28565, 4-((5-(5-Cyclohexyl-4H-1,2,4-triazol-3-yl)-2-methylphenyl)sulfonyl)morpholine] was tested. Which EC50 did it give?
Its EC50 is 150 nM.

Cc1ccc(-c2cccc3[nH]ncc23)cc1S(=O)(=O)N1CCOCC1 [SR-27484, 4-((5-(1H-Indazol-4-yl)-2-methylphenyl)sulfonyl)morpholine] was tested. Which EC50 did it give?
The EC50 was greater than 320 nM.

How did the EC50 turn out when Cc1ccc(-c2nnc(-c3ccccc3)[nH]2)cc1S(=O)(=O)N1CCC(O)(c2ccccc2)CC1 [SR-32784, 1-((2-Methyl-5-(5-phenyl-4H-1,2,4-triazol-3-yl)phenyl)sulfonyl)-4-phenyl piperidin-4-ol] was run?
The EC50 was greater than 1500 nM.

For Cc1ccc(-c2ccnc(Cl)c2)cc1S(=O)(=O)N1CCN(C(=O)c2ccco2)CC1 [SR-35516, (4-((5-(2-Chloropyridin-4-yl)-2-methylphenyl)sulfonyl)piperazin-1-yl)(furan-2-yl)methanone], which EC50 is on record?
The EC50 was 270 nM.

With COc1ccc(-c2nnc(-c3ccccc3)[nH]2)cc1S(=O)(=O)N1CCOCC1 [SR-26624, 4-((2-Methoxy-5-(5-phenyl-4H-1,2,4-triazol-3-yl)phenyl)sulfonyl) morpholine] as the molecule, how does the EC50 read?
The EC50 was 260 nM.

How did the EC50 turn out when Cc1ccc(-c2c(C)nn(C)c2C)cc1S(=O)(=O)N1CCOCC1 [SR-25584, 4-((2-Methyl-5-(1,3,5-trimethyl-1H-pyrazol-4-yl)phenyl)sulfonyl)morpholine] was run?
Its EC50 is greater than 320 nM.

Cc1ccc(-c2nnc(C)c3ccccc23)cc1S(=O)(=O)N1CCOCC1 [SR-26424, 4-((2-Methyl-5-(4-methylphthalazin-1-yl)phenyl)sulfonyl)morpholine] was tested. Which EC50 did it give?
Its EC50 is greater than 320 nM.
